Source: ChEMBL document CHEMBL3243921, “2-Pyrrolidinylideneureas, a new class of central nervous system agents” (J Med Chem, 1978)
Calls of active or inactive are those of the source.

Assays:
[1] = system: Rattus norvegicus; assay: Antianxiety activity in ip dosed rat assessed as effect on increase in punished responses administered qd for 5 days measured every day for 5 days; assay type: functional; details: 120 h, read-out: MED
[2] = system: Mus musculus; assay: Muscle relaxant activity in po dosed mouse assessed as increase in strychnine-induced persistant convulsive threshold; assay type: functional
[3] = system: Mus musculus; assay: Muscle relaxant activity in po dosed mouse assessed as blockade of pentylenetetrazol-induced tonic extensor seizure; assay type: functional
[4] = system: Mus musculus; assay: Anticonvulsant activity in po dosed mouse assessed as blockade of supramaximal electroshock-induced […] seizure; assay type: functional
[5] = system: Mus musculus; assay: Sedative-hypnotic activity in mouse assessed as increase in pentylenetetrazol-induced pseudo/persistent-convulsive threshold at 1 to 5 mg/kg, po; assay type: functional, organism-based
[6] = Ratio of LD50 for po dosed mouse to PD50 for acute toxicity in po dosed mouse assessed as concentration required to produce 50% loss of righting reflex; assay type: organism-based; details: in vivo
[7] = Acute toxicity in po dosed mouse assessed as mortality administered as qd for 6 days measured on day 7 post last dose; assay type: organism-based; details: in vivo
[8] = system: Mus musculus; assay: Acute toxicity in po dosed mouse assessed as concentration required to produce 50% loss of righting reflex administered as qd for 4 days measured for 1 min post last dose; assay type: organism-based; details: in vivo
[9] = system: Mus musculus; assay: Sedative activity in mouse assessed as increase in pentylenetetrazol-induced pseudo-convulsive threshold at 200 mg/kg, po relative to control; assay type: functional
[10] = Therapeutic index, ratio of PD50 for acute toxicity in po dosed mouse assessed as concentration required to produce 50% loss of righting reflex to MED causing antianxiety activity in ip dosed rat assessed as effect on increase in punished responses; assay type: organism-based; details: in vivo, other: oral (PD50, mouse) and intraperitoneal (MED, rat), read-out: TI
[11] = system: Mus musculus; assay: Sedative activity in mouse assessed as increase in pentylenetetrazol-induced pseudo-convulsive threshold at 25 to 200 mg/kg, po; assay type: functional, organism-based
[12] = system: Mus musculus; assay: Hypotic activity in mouse assessed as increase in pentylenetetrazol-induced persistant-convulsive threshold at 200 mg/kg, po relative to control; assay type: functional, organism-based; set-up: dose 200 mg/kg
[13] = system: Mus musculus; assay: Sedative activity in mouse assessed as increase in pentylenetetrazol-induced pseudo-convulsive threshold at 100 mg/kg, po; assay type: functional, organism-based; set-up: dose 100 mg/kg
[14] = system: Mus musculus; assay: Potency index, ratio of chlorzoxazone MED20 to compound MED20 for muscle relaxant activity in po dosed mouse assessed as blockade of pentylenetetrazol-induced tonic extensor seizure; assay type: functional
[15] = system: Mus musculus; assay: Blockade of pentylenetetrazol-induced lethality in mouse assessed as delay in occurrence of death time up to 200 mg/kg, po; assay type: functional
[16] = system: Mus musculus; assay: Potency index, ratio of methocarbamol MED20 to compound MED20 for anticonvulsant activity in po dosed mouse assessed as blockade of supramaximal electroshock-induced […] seizure; assay type: functional
[17] = system: Mus musculus; assay: Potency index, ratio of methocarbamol MED20 to compound MED20 for muscle relaxant activity in po dosed mouse assessed as blockade of pentylenetetrazol-induced tonic extensor seizure; assay type: functional
[18] = Therapeutic index, ratio of PD50 for acute toxicity in po dosed mouse assessed as concentration required to produce 50% loss of righting reflex to MED25 for muscle relaxant activity in po dosed mouse assessed as increase in strychnine-induced persistant convulsive threshold; assay type: organism-based; details: in vivo, read-out: TI
[19] = system: Mus musculus; assay: Hypnotic activity in mouse assessed as increase in pentylenetetrazol-induced persistent-convulsive threshold up to 200 mg/kg, po; assay type: functional, organism-based; set-up: dose 200 mg/kg
[20] = system: Mus musculus; assay: Potency index, ratio of chlorzoxazone MED20 to compound MED20 for anticonvulsant activity in po dosed mouse assessed as blockade of supramaximal electroshock-induced […] seizure; assay type: functional
[21] = system: Mus musculus; assay: Sedative activity in mouse assessed as increase in pentylenetetrazol-induced pseudo-convulsive threshold up to 200 mg/kg, po; assay type: functional, organism-based; set-up: dose 200 mg/kg
[22] = system: Mus musculus; assay: Muscle relaxant activity in mouse assessed as blockade of pentylenetetrazol-induced tonic extensor seizure at 40 mg/kg, po; assay type: functional, organism-based; set-up: dose 40 mg/kg
[23] = system: Mus musculus; assay: Blockade of pentylenetetrazol-induced lethality in mouse at 40 mg/kg, po; assay type: functional, organism-based; set-up: dose 40 mg/kg
[24] = system: Rattus norvegicus; assay: Antianxiety activity in rat assessed as effect on increase in punished responses at 25 mg/kg, ip qd administered for 5 days measured every day for 5 days; assay type: functional, organism-based; set-up: dose 25 mg/kg
[25] = Therapeutic index, ratio of PD50 for acute toxicity in po dosed mouse assessed as concentration required to produce 50% loss of righting reflex to MED20 for muscle relaxant activity in po dosed mouse assessed as blockade of pentylenetetrazol-induced tonic extensor seizure; assay type: organism-based; details: in vivo, read-out: TI
[26] = Therapeutic index, ratio of PD50 for acute toxicity in po dosed mouse assessed as concentration required to produce 50% loss of righting reflex to MED20 for anticonvulsant activity in po dosed mouse assessed as blockade of supramaximal electroshock-induced […] seizure; assay type: organism-based; details: in vivo, read-out: TI
[27] = system: Mus musculus; assay: Sedative-hypnotic activity in mouse assessed as increase in pentylenetetrazol-induced pseudo/persistent-convulsive threshold at 50 to 200 mg/kg, po; assay type: functional, organism-based
[28] = system: Mus musculus; assay: Sedative-hypnotic activity in po dosed mouse assessed as increase in pentylenetetrazol-induced persistent-convulsive threshold; assay type: functional, organism-based
[29] = system: Mus musculus; assay: Hypnotic activity in mouse assessed as increase in pentylenetetrazol-induced persistent-convulsive threshold at 50 mg/kg, po relative to control; assay type: functional
[30] = system: Mus musculus; assay: Sedative activity in mouse assessed as increase in pentylenetetrazol-induced pseudo-convulsive threshold at 25 mg/kg, po relative to control; assay type: functional
[31] = system: Mus musculus; assay: Sedative activity in mouse assessed as increase in pentylenetetrazol-induced pseudo-convulsive threshold at 50 mg/kg, po relative to control; assay type: functional

Row | Structure (SMILES) | minimal effective dose [1] | MED25 [2] | MED20 [3] | MED20 [4] | selectivity ratio [6] | LD50 at 144 h [7] | PD50 [8] | selectivity ratio [10] | also measured
1 | CN1C(=O)CN=C(c2ccccc2)c2cc(Cl)ccc21 [DIAZEPAM] | 0.5 mg/kg | 0.17 mg/kg | 0.1 mg/kg | 15 mg/kg |  |  |  |  | Activity [5]: Active
2 | CN1CCC/C1=N\C(=O)Nc1cccc(Cl)c1 | 15 mg/kg | 50 mg/kg | 32 mg/kg | 142 mg/kg | 1.6 | 1500 mg/kg | 950 mg/kg | 63 | Activity [9]: 50%; Activity [11]: Active; Activity [12]: inactive; Activity [13]: inactive
3 | Cc1cccc(Cl)c1NC(=O)/N=C1\CCCN1C | > 25 mg/kg | 52 mg/kg | 28 mg/kg | 43 mg/kg | 1.9 | 449 mg/kg | 232 mg/kg |  | Ratio [14]: 4; Time [15]: 1 min; Ratio [16]: 3; Ratio [17]: 4; selectivity ratio [18]: 4.5; Activity [19]: inactive; Ratio [20]: 3; Activity [21]: inactive
4 | CNC1=Nc2ccc(Cl)cc2C(c2ccccc2)=[N+]([O-])C1 [CHLORDIAZEPOXIDE] | 2.5 mg/kg | 10 mg/kg | 1.5 mg/kg | 71 mg/kg | 1.5 | 990 mg/kg | 680 mg/kg | 260 | Activity [22]: Active; Activity [23]: Active
5 | CCCCCCCCCCCCNC(=O)/N=C1\CCCN1 |  |  |  |  |  |  |  |  | Activity [24]: Active
6 | COc1ccccc1OCC(O)COC(N)=O (configuration not stated) [METHOCARBAMOL] | > 25 mg/kg | 310 mg/kg | 150 mg/kg | 120 mg/kg | 1.9 | 2000 mg/kg | 1050 mg/kg |  | selectivity ratio [25]: 7; selectivity ratio [26]: 8.7; selectivity ratio [18]: 3.4
7 | CCN1CCC/C1=N\C(=O)Nc1cccc(Cl)c1 | 15 mg/kg | 137 mg/kg | 60 mg/kg | 200 mg/kg | 1.2 | 1700 mg/kg | 1307 mg/kg | 58 | Activity [27]: Active; Activity [28]: Active
8 | CN1CCC/C1=N\C(=O)Nc1ccc([N+](=O)[O-])cc1 | 15 mg/kg | >200 mg/kg | 100 mg/kg | >200 mg/kg | 1 | 1310 mg/kg | 1200 mg/kg | 80 | Activity [27]: Active; Activity [29]: 45%; Activity [30]: 25%; Activity [11]: Active; Activity [31]: 73%
9 | CCc1cccc(C)c1NC(=O)/N=C1\CCCN1C |  | 96 mg/kg | 20 mg/kg | 36 mg/kg |  | 650 mg/kg |  |  | Ratio [14]: 4; Time [15]: 1 min; Ratio [16]: 3; Ratio [17]: 4; Activity [19]: inactive; Ratio [20]: 3; Activity [21]: inactive
